Measured values: patent publication US20220016115A1, “USP19 INHIBITORS FOR USE IN THERAPY” (ALMAC DISCOVERY LIMITED, priority 2018, published 2022)
Entries after “also recorded” stand apart in the source; their conditions may differ.

Assays:
[1] = system: male C57bl/6 mice; experiment: Sciatic nerve denervation muscle wasting model; assay type: in vivo; conditions: 75 mg/kg IP twice daily, vs vehicle
Protocol: To induce muscle wasting, a 1 cm segment of the sciatic nerve in the thigh was removed from mice (male C57bl/6 mice at 8-10 weeks of age; n=10 per group) under isoflurane anaesthesia and analgesia with carprofen. A sham operation was carried out in the opposite leg as a control.
Mice were randomised into Vehicle or Test groups, with all animals weighed to ensure a similar mean weight in each group. A USP19 inhibitory compound (ADC-141, which is 1-(((S)-7-((R)-3-Cyclohexyl-2-methylpropanoyl)-10-hydroxy-7-azaspiro[4.5]decan-10-yl)methyl)-4-phenyl-5-(piperazine-1-carbonyl)pyridin-2(1H)-one, corresponding to exemplary compound 212 provided herein) at 75 mg/kg or Vehicle was administered IP twice daily starting from the evening post-operation.
Mice were sacrificed 14 days later. Fat pads, liver, gastrocnemius and tibialis anterior muscles were harvested. Tissue mass were measured in both groups.

[2] = biological target: T1, USP19 (Mus musculus, UniProt Q3UJD6); experiment: Cell target engagement, mouse skeletal muscle cell line; assay type: cell-based
T1 construct: endogenous in cells
T1 sequence (Q3UJD6 1-1360): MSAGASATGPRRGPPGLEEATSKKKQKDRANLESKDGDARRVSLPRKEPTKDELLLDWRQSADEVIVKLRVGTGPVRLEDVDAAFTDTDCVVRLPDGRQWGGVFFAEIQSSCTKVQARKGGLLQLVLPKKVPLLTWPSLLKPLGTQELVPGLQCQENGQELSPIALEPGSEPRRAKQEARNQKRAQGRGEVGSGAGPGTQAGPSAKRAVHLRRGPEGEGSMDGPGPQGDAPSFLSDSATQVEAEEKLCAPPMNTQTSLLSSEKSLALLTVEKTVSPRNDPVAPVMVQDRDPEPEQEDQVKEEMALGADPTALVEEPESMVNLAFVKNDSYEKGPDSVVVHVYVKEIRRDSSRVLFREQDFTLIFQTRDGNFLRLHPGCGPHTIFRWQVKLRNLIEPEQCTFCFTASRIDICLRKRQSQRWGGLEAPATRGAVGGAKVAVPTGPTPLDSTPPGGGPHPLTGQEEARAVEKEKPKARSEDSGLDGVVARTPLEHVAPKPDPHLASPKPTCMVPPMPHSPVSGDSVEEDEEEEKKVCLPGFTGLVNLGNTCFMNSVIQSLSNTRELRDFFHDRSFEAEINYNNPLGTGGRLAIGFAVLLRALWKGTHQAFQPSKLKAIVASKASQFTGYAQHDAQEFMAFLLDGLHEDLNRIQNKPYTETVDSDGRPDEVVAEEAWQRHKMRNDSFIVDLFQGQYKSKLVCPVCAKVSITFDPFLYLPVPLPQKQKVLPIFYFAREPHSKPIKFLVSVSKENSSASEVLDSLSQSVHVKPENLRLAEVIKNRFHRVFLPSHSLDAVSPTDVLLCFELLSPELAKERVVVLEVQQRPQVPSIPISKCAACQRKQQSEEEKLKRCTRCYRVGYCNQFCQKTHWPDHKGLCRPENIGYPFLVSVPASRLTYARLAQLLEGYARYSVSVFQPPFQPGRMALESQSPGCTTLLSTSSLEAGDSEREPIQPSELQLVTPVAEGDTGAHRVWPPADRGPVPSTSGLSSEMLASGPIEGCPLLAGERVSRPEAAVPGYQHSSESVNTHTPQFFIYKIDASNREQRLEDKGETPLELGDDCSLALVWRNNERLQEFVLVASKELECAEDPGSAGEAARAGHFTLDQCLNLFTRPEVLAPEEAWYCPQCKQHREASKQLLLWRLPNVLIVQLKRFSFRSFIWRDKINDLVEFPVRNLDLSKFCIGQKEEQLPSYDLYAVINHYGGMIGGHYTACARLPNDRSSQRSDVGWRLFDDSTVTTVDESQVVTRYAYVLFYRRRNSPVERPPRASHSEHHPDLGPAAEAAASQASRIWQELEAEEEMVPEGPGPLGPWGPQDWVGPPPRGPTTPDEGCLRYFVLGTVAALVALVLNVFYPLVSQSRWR
Protocol: Cells from a breast cancer cell line, a neuroblastoma cell line and a mouse skeletal muscle cell line were treated with a USP19 inhibitor compound (ADC-141, corresponding to Example 212 provided herein) for 2 hrs, lysed (lysis buffer: 50 mM Tris pH 7.4; 150 mM NaCl; 5 mM MgCl2; 0.5 mM EDTA; 0.5% NP40; 10% Glycerol; 2 mM DTT) and Ubiquitin-propargylamine (Ub-PA; UbiQ) or Ubiquitin-vinyl methyl ester (Ub-VME; Almac Sciences Scotland Limited) was then added. Samples were analysed by western blotting probing for USP19 (EC50 determined by densitometry).

## C[C@H](CC1CCCCC1)C(=O)N1CC[C@@](O)(Cn2cc(C(=O)N3CCNCC3)c(-c3ccccc3)cc2=O)C2(CCCC2)C1 [ADC-141, 1-(((S)-7-((R)-3-Cyclohexyl-2-methylpropanoyl)-10-hydroxy-7-azaspiro[4.5]decan-10-yl)methyl)-4-phenyl-5-(piperazine-1-carbonyl)pyridin-2(1H)-one]
[1]; 2 weeks
  liver mass: increase in liver mass
  mass of the epididymal fat pad: significant reduction in fat mass; also recorded: significantly smaller fat pads
[1]; denervated limb, 14 days
  loss of muscle mass in the tibialis anterior muscle: significantly lower loss of muscle mass
  muscle wasting in the gastrocnemius muscle: reduced in the gastrocnemius muscle (FIG. 2), though the trend did not reach significance
[2]
  cell permeability: good cell permeability
[2]; 2 hrs treatment, Ub-PA or Ub-VME probe, western blot
  EC50 (USP19 target engagement, densitometry): low nanomolar
